The test system of one series is Vx-2. Kind of series: ATP levels after treatment, Vx-2. The class given is cell-based, rabbit. The following applies: 0.1, 0.2, 0.3 mM for 1 and 3 hours. As for the experimental part:
ATP levels were measured in various cell lines, e.g., HepG2, Sk-Hep1, and Vx-2 after 3-bromopyruvate treatment. In each case, cells were treated with increasing concentration of 3-bromopyruvate (0.1 mM, 0.2 mM, and 0.3 mM) for 1 and 3 hours before measuring ATP levels in the cell. FIGS. 5 (A-C) show the ATP depletion observed following 3-bromopyruvate treatment in HepG2, Sk-Hep1, and Vx-2 cell lines, respectively.

Series [1] relates to liver implanted VX2 tumors. The experiment in a line: Single direct intraarterial bolus injection into liver implanted VX2 tumors, histology. The class given is in vivo, rabbit. The text has this:
The rabbit VX2 tumor was selected for implantation in the liver because of the similarities of its blood supply to that of human hepatomas. Other attributes of this tumor include rapid tumor growth, development of a sizable tumor that can be readily identified by x-ray imaging (fluoroscopy), and a biochemical phenotype characteristic of advanced stage tumors, i.e., high glycolysis and elevated levels of mitochondrial bound hexokinase. In addition, the rabbit is large enough that selective manipulation of catheters in the hepatic artery from the common femoral artery for delivery of agents is possible. Adult New Zealand white rabbits (32 total, Robinson Services, Inc.) weighing 3.5-4.2 kg were used. Studies with these animals were approved by the Johns Hopkins University Animal Care and Use Committee and carried out according to their guidelines. For successful implantation of the VX2 tumor into the liver, it was first grown for 2 weeks on the hind leg of a carrier rabbit. Each carrier rabbit was used to supply tumor cells for implantation into the left lobe of the liver of 2 separate rabbits. All animals, carriers and recipients, were anesthetized with a mixture of acepromazine (2.5 mg/kg) and ketamine hydrochloride (44 mg/kg) administered intramuscularly. Intravenous access was gained via a marginal ear vein and sodium pentothal was given intravenously to maintain anesthesia. The VX2 tumor was then excised from the carrier rabbit and placed in Hanks solution. Chunks of the tumor were minced in the same solution. Then, the abdomens of the recipient rabbits were shaved and prepped with betadine after which a midline subxyphoid incision was made. The anterior surface of the liver was exposed and tumor cells (0.1-0.2 ml) from the minced donor tumor were directly implanted onto the left lobe of the liver using the outer cannula of a 21-gauge angiocatheter. This method allows the growth of a single solitary, well-demarcated tumor in the liver of each recipient rabbit. The abdomen was closed in 2 layers. Proper aseptic technique was rigorously observed during each implantation. After surgery, animals were returned to their cages, kept warm with blankets, and monitored in the animal laboratory under the direct supervision of a physician or a technician until they recovered from anesthesia. […] The tumors were allowed to grow for another 14 days at which time they reached an ellipsoidal shape with dimension of approximately 1.5×1.8×2.5 cm.
The solutions of 3-bromopyruvate (3-BrPA, Sigma Chemical Co., St. Louis, Mo.) were prepared in phosphate-buffered saline (PBS). After adjusting the pH to 7.0 with NaOH the solutions were sterilized via Millipore's Millexâ GV 0.22 mm filter unit and used immediately. Freshly made solutions were used in all studies reported here.
Administration of anesthesia, intravenous access and sodium pentothal anesthesia were carried out as described in Example 12. Transcatheter hepatic artery injection of 3-BrPA was performed under fluoroscopy. The animals were brought to the angiography suite and intubated using a size 3.0 mm endotracheal tube (Mallinkrodt Medical, St. Louis, Mo.) but not ventilated. Surgical cut-down was performed to gain access into the right common femoral artery, after which a 3 French sheath (Cook Inc., Bloomington, Ind.) was placed. A specially manufactured 2 French catheter with a tip in the shape of a hockey-stick (JB1 catheter, Cook Inc., Bloomington, Ind.) was manipulated into the celiac axis after which a celiac arteriogram was performed in order to delineate the blood supply to the liver and confirm the location of the tumor. The tumor could readily be visualized as a region of hypervascular blush located on the left side of the liver near the gastric fundus. The left hepatic artery, which usually provides most of the blood flow to the tumor, was selectively catheterized via the common hepatic artery. […]

In the next series the test system is VX2. Kind of series: Caspase-3 activity, VX2. The class given is cell-based, rabbit. The following applies: 1 mM for 3 hour. As for the experimental part:
(§1) Caspase-3 activity and reduced cell viability was also measured in cell lines (HepG2, THLE-2, and VX2 cell lines) following 3-bromopyruvate treatment (1 mM for 3 hour) (FIG. 6A). Caspase-3 activity increased in each cell line following treatment and cell viability decreased following treatment. An increase in caspase-3 activity indicated the mechanism of cell death is apoptotic. FIGS. 6 B and C show cell viability is reduced in each cell line with increasing 3-bromopyruvate concentration after 1 and 3 hours of treatment.

A short description of series [2]: Survival analysis, treatment versus control group (Kaplan-Meier). The class given is in vivo, rabbit. The following applies: 11 animals, control 18.6 days. From the text: FIG. 9 is a graph showing survival of untreated (control) versus 3-bromopyruvate treated animals.
The control group consisted of 10 animals and the treatment group consisted of 11 animals. The Kaplan-Meier method was used to estimate survival curves. […] The mean survival time in the control group is 18.6 days as compared to the treatment group, with 50.0 days.

The nature of series [3]: Biodistribution of 14C radiolabeled 3-bromopyruvate in rabbit Vx-2 model. The class given is in vivo. The method, then:
In order to properly design a treatment protocol that would ensure survival of the animal with the least amount of toxicity, the biodistribution of 3-bromopyruvate given either IV or intraarterially over a period of 24 hours was investigated. For this series of experiments, radioactive 3-bromopyruvate using ^14C was synthesized. The use of ^14C labeled 3-bromopyruvate would allow monitoring in each tissue.
36 rabbits were divided into two groups of 18 animals each. Group 1 was treated intraarterially and group 2 received intravenous injection of 3-bromopyruvate. Each group was further subdivided into six groups of three rabbits each, corresponding to various time points of sacrifice (0, 30, 60, 120 and 240 minutes and 24 hours). All rabbits were fasted for 24 hours prior to treatment. The rabbits treated intraarterially received a one-hour infusion of 25 cc of 1.75 mM 3-bromopyruvate in PBS and those treated intravenously received a one-hour infusion of 25 cc of 20 mM 3-bromopyruvate in PBS. The difference in doses of 3-bromopyruvate between intraarterial and intravenous administration is based on the optimal dose for each method of administration. Radiolabeled 3-bromopyruvate (200 μCi, 100 μL) was added to each 25 ml treatment solution. One hour before sacrifice, 1 ml of 18FDG (1 mCi) was injected via an ear vein to monitor glucose uptake.
The purpose of the injection of FDG was to correlate the effects of 3-bromopyruvate with glucose uptake. […] This finding, also present when the drug was given intraarterially, was more pronounced and the accumulation of 3-bromopyruvate is prolonged compared to IV administration.

A further series deals with HepG2. The experiment in a line: Caspase-3 activity, HepG2. The following applies: 1 mM for 3 hour. The class given is cell-based, human. The method, then:
as §1

[4] abbreviates: single intraarterial injection, 4 days.
The mark [5] stands for this setting: IA one-hour infusion 25 cc 1.75 mM.

Entries after “also recorded” stand apart in the source; their conditions may differ.

As for `O=C(O)C(=O)CBr` [3-bromopyruvate], the ATP levels entry with Vx-2 is reported as “ATP depletion”. For the same compound, the “damage to 9 major tissues” value in series [1] (4 days after single intraarterial injection) was “In no case was there evidence for damage”. Moreover, in series [1] (much higher concentrations (5 mM), intraarterial), the “damage to portal veins, sinusoids, bile ducts and arteriolar complexes” value is on record as “only apparent damage occurring occasionally in the peribiliary arteriolar complexes”. The “necrosis (non-viable cells) in tumor sections outside the central core” value in series [1] (single IA bolus 25 ml 0.5 mM, 4 days) is approximately 100%. Moreover, the “total number of viable cells in liver implanted tumors, lowest reached” value in series [1] (single injection) came to 10%. Besides, the “maximal number of non-viable cells observed in any one experiment” value in series [1] (single intraarterial injection) is 90%. In series [1] (setting [4]), the “total number of non-viable cells in the tumor population” value was 84±5% and the “viable cells in the entire tumor population” value was found to be 16±5%. In series [1] (single intraarterial injection, 4 days, listed as 3-BrPA), the “viability / damage of surrounding liver tissue” value is on record as “no damage; also recorded: remained completely viable”. Moreover, the Caspase-3 activity entry with VX2 was “increased”. In series [2], this compound returned a mean survival time of 50.0 days. Further, the “levels in the brain” value in series [3] (14C label) is on record as “virtually undetectable”. Further, in series [3] (setting [5]), the “accumulation in other organs including brain, lungs and heart” value was “no accumulation”; the “retention in the tumor” value is recorded as “stayed within the tumor up to 24 hours”. The clearance route entry in series [3] (IA, lesser extent through the kidneys) was “mostly through the liver”. For the same compound, the “uptake by organs (heart, lung and brain)” value in series [3] (IV one-hour infusion 25 cc 20 mM) is reported as “no significant uptake”. Besides, the “time of maximal tumor uptake” value in series [3] (after IV injection) turned out to be 4 h. In addition, in series [3] (rabbit, in vivo), the “blood brain barrier penetration” value is reported as “does not cross the blood brain barrier”, the “inhibition of FDG (glucose) uptake in organs” value is reported as “no inhibition” and the “tissue damage at histopathologic analysis” value is recorded as “none of the organs showed any associated tissue damage”. Moreover, the Caspase-3 activity entry in the series with HepG2 was “increased”.

Source of the values: patent US20100203110A1, “Therapeutics for Cancer Using 3-Bromopyruvate and Other Selective Inhibitors of ATP Production” (The Johns Hopkins University, priority 2006, published 2010).
